Data on two molecules can be found in US20190195864A1, “CELL-FREE SENSOR SYSTEMS” (priority 2016, published 2019).

For one series, the target named is T1, tetR (Escherichia coli, UniProt P04483).
T1 construct: The tetR gene was cloned into the pET28a(+) E. coli expression plasmid; 6xHis (C); made in house; host or cells: E. coli BL21(DE3), pET28a(+)
As to the kind of experiment: T7 in vitro transcription from tetR-controlled reporter plasmid, ATC titration. As to conditions: 100 nM tetR and 100 nM reporter plasmid; ATC titrated 2 uM to 0 uM; 37° C., 4 hours; agarose gel readout. It counts as biochemical. How it is done:
Using a fixed amount of tetR and plasmid, 100 nM each, T7 transcription reactions were set up as described above with the inclusion of a titrating amount of anhydrotetracycline (ATC), the native ligand for tetR. The ATC titration ranged from 2 uM to 0 uM. The IVT transcripts were analyzed by gel as described above. […] This titratable response is a requirement when working with engineered sensors cell-free to enrich a population for those members with improved ligand binding function in the pool.

Another series has as its system cells. The series can be described thus: cell-based dose response of TetR sensors to nootkatone (FIG. 10). As to conditions: cell-based sensor assay. From the text: This is particularly useful in situations when, inter alia, a target molecule is toxic to cells in vivo and therefore a sensor to conduct cell-based detection is impractical. […] Accordingly, the detection of this target molecule would benefit from the cell-free methods described herein.

T1 sequence (P04483 whole entry): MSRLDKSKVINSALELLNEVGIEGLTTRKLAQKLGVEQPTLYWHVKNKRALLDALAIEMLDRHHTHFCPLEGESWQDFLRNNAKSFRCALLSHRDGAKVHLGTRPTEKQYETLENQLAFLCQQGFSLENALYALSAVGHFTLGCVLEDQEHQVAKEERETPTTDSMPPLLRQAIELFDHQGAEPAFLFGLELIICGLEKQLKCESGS

On to `Cc1c2c(c(O)c3c(O)cccc13)C(=O)[C@]1(O)C(=O)C(C(N)=O)=C(O)[C@@H](N(C)C)[C@@H]1C2` [ATC, anhydrotetracycline], for which the “ATC concentration giving a strong RNA band similar to no tetR (full derepression of transcription)” value at tetR is on record as 200 nM. For the molecule `C=C(C)[C@@H]1CCC2=CC(=O)C[C@@H](C)[C@]2(C)C1` [nootkatone], the “nootkatone concentration after which there is a toxic effect and the cells start to die” value in the series on cells is on record as more than 0.5 mg/mL.
